Numbers after ± are expanded uncertainties.
Assay: xn = mol fraction of the nth substance listed
Settings: 101.3 kPa, Liquid; for speed of sound: Sing-around technique in a fixed-path interferometer; for mass density: Vibrating tube method

c1ccc2c(c1)CCCC2 [1,2,3,4-tetrahydronaphthalene] + CCCCCCCCCCCC
Settings	mass density, 293.15 K [kg/m3]	mass density, 303.15 K [kg/m3]	mass density, 313.15 K [kg/m3]	mass density, 323.15 K [kg/m3]	speed of sound, 293.15 K [m/s]	speed of sound, 303.15 K [m/s]	speed of sound, 313.15 K [m/s]	speed of sound, 323.15 K [m/s]	speed of sound, 333.15 K [m/s]
x1 = 0.1021	763.04 ± 0.24	755.74 ± 0.24	748.42 ± 0.24	741.07 ± 0.25	1308.1 ± 1.2	1269.8 ± 1.2	1232.1 ± 1.2	1194.9 ± 1.2	1158.3 ± 1.2
x1 = 0.2015	777.99 ± 0.24	770.65 ± 0.24	763.25 ± 0.24	755.85 ± 0.24	1318.1 ± 1.2	1280 ± 1.2	1242.2 ± 1.2	1205.4 ± 1.2	1168.6 ± 1.2
x1 = 0.307	795.31 ± 0.24	787.92 ± 0.24	780.5 ± 0.24	773.06 ± 0.24	1331.6 ± 1.2	1293.4 ± 1.2	1255.9 ± 1.2	1218.9 ± 1.2	1182.6 ± 1.2
x1 = 0.3998	811.97 ± 0.24	804.53 ± 0.24	797.07 ± 0.24	789.61 ± 0.24	1344 ± 1.2	1306 ± 1.2	1268.5 ± 1.2	1231.6 ± 1.2	1195.2 ± 1.2
x1 = 0.4985	831.41 ± 0.24	823.91 ± 0.24	816.39 ± 0.24	808.85 ± 0.24	1359.7 ± 1.2	1321.7 ± 1.2	1284.3 ± 1.2	1247.4 ± 1.2	1211 ± 1.2
x1 = 0.5961	852.66 ± 0.24	845.1 ± 0.24	837.52 ± 0.24	829.89 ± 0.24	1377 ± 1.2	1339 ± 1.2	1301.5 ± 1.2	1264.5 ± 1.2	1228.2 ± 1.2
x1 = 0.7019	878.22 ± 0.24	870.59 ± 0.24	862.94 ± 0.24	855.26 ± 0.24	1399.4 ± 1.2	1361.2 ± 1.2	1323.6 ± 1.2	1286.7 ± 1.2	1250.3 ± 1.2
x1 = 0.8012	905.15 ± 0.24	897.44 ± 0.24	889.71 ± 0.24	881.98 ± 0.24	1423.8 ± 1.2	1385.4 ± 1.2	1347.6 ± 1.2	1310.5 ± 1.2	1274 ± 1.2
x1 = 0.8998	935.03 ± 0.25	927.23 ± 0.25	919.41 ± 0.25	911.58 ± 0.25	1453.4 ± 1.2	1414.7 ± 1.2	1376.6 ± 1.2	1339.2 ± 1.2	1302.5 ± 1.2
x1 = 1	969.52 ± 0.23	961.59 ± 0.23	953.66 ± 0.23	945.72 ± 0.23	1489.5 ± 1.3	1450.1 ± 1.2	1411.5 ± 1.2	1373.6 ± 1.2	1336.4 ± 1.2

Source: the NIST ThermoML archive (doi:10.1016/j.jct.2012.05.023)
